How the values were obtained:
M. pneumoniae ATCC 15492 = experiment: Anti-mycoplasmal activity, MIC in Friis broth agarose; format: cell-based; details: Friis broth solidified with 0.9% agarose, 6 days incubation at 37°C
Ps. aeruginosa 10662 = experiment: Human bacteria, MIC by serial dilution in nutrient agar; format: cell-based; details: nutrient agar with 5% chocolated horse blood, 18 hours at 37°C
E. coli E1 = experiment: Veterinary bacteria, MIC by two fold serial dilution in agar; details: E. coli E1; Diagnostic Sensitivity Test Agar; 18 hours at 37°C
Protocol: (§1) The activity of the compounds of the Examples against various organisms important in veterinary infections was determined using two fold serial dilutions in Diagnostic Sensitivity Test Agar inoculated with 10^4 organisms.

[1] = test system: Corynebacterium pyogenes CY1; experiment: as above; details: Corynebacterium pyogenes CY1; Diagnostic Sensitivity Test Agar; 18 hours at 37°C
Protocol: as §1

M. suipneumoniae HK(2) = experiment: Anti-mycoplasmal activity, MIC in Friis broth agarose; format: cell-based; details: Friis broth solidified with 0.9% agarose, 6 days incubation at 37°C
[2] = test system: M. suipneumoniae PW/C/210; experiment: as above; format: cell-based; details: Friis broth solidified with 0.9% agarose, 6 days incubation at 37°C
Past. multocida PA2 = experiment: Veterinary bacteria, MIC by two fold serial dilution in agar; details: Past. multocida PA2; Diagnostic Sensitivity Test Agar; 18 hours at 37°C
Protocol: as §1

S. typhimurium S18 = experiment: as above; details: S. typhimurium S18; Diagnostic Sensitivity Test Agar; 18 hours at 37°C
Protocol: as §1

Sarcina lutea 8340 = experiment: Human bacteria, MIC by serial dilution in nutrient agar; format: cell-based; details: nutrient agar with 5% chocolated horse blood, 18 hours at 37°C
Bord. bronchiseptica BO9 = experiment: Veterinary bacteria, MIC by two fold serial dilution in agar; details: Bord. bronchiseptica BO9; Diagnostic Sensitivity Test Agar; 18 hours at 37°C
Protocol: as §1

P. mirabilis 889 = experiment: Human bacteria, MIC by serial dilution in nutrient agar; format: cell-based; details: nutrient agar with 5% chocolated horse blood, 18 hours at 37°C
M. suipneumoniae MS16 = experiment: Anti-mycoplasmal activity, MIC in Friis broth agarose; format: cell-based; details: Friis broth solidified with 0.9% agarose, 6 days incubation at 37°C
[3] = test system: Pasteurella multocida 1633; experiment: Human bacteria, MIC by serial dilution in nutrient agar; format: cell-based; details: nutrient agar with 5% chocolated horse blood, 18 hours at 37°C
Staph. aureus Russell = experiment: as above; format: cell-based; details: nutrient agar with 5% chocolated horse blood, 18 hours at 37°C
Staph. aureus W2827 = experiment: as above; format: cell-based; details: nutrient agar with 5% chocolated horse blood, 18 hours at 37°C
E. coli NCTC 10418 [4] = experiment: Veterinary bacteria, MIC by two fold serial dilution in agar; details: E. coli NCTC 10418 (veterinary panel); Diagnostic Sensitivity Test Agar; 18 hours at 37°C
Protocol: as §1

[5] = test system: Neisseria catarrhalis 1502; experiment: Human bacteria, MIC by serial dilution in nutrient agar; format: cell-based; details: nutrient agar with 5% chocolated horse blood, 18 hours at 37°C
M. dispar NCTC 10125 = experiment: Anti-mycoplasmal activity, MIC in Friis broth agarose; format: cell-based; details: Friis broth solidified with 0.9% agarose, 6 days incubation at 37°C
M. suipneumoniae UCD 1 = experiment: as above; format: cell-based; details: Friis broth solidified with 0.9% agarose, 6 days incubation at 37°C
M. bovis NCTC 10131 = experiment: microbe, parasite or virus in culture; format: cell-based; details: M. bovis NCTC 10131; Friis broth solidified with 0.9% agarose; 6 days incubation at 37°C
M. hyorhinis ATCC 23234 = experiment: Anti-mycoplasmal activity, MIC in Friis broth agarose; format: cell-based; details: Friis broth solidified with 0.9% agarose, 6 days incubation at 37°C
E. coli ESS = experiment: Human bacteria, MIC by serial dilution in nutrient agar; format: cell-based; details: nutrient agar with 5% chocolated horse blood, 18 hours at 37°C
Strep. faecalis I = experiment: as above; format: cell-based; details: nutrient agar with 5% chocolated horse blood, 18 hours at 37°C
Past. multocida PA1 = experiment: Veterinary bacteria, MIC by two fold serial dilution in agar; details: Past. multocida PA1; Diagnostic Sensitivity Test Agar; 18 hours at 37°C
Protocol: as §1

E. coli NCTC 10418 [6] = experiment: Human bacteria, MIC by serial dilution in nutrient agar; format: cell-based; details: E. coli NCTC 10418 (human panel); nutrient agar with 5% chocolated horse blood; 18 hours at 37°C
M. suipneumoniae NB12 = experiment: Anti-mycoplasmal activity, MIC in Friis broth agarose; format: cell-based; details: Friis broth solidified with 0.9% agarose, 6 days incubation at 37°C
[7] = test system: Staph. aureus 152 (pen. sens.); experiment: Veterinary bacteria, MIC by two fold serial dilution in agar; details: Staph. aureus 152 (pen. sens.); Diagnostic Sensitivity Test Agar; 18 hours at 37°C
Protocol: as §1

[8] = test system: M. suipneumoniae ATCC 25095; experiment: Anti-mycoplasmal activity, MIC in Friis broth agarose; format: cell-based; details: Friis broth solidified with 0.9% agarose, 6 days incubation at 37°C
[9] = test system: Staph. aureus B4 (pen. resistant); experiment: Veterinary bacteria, MIC by two fold serial dilution in agar; details: Staph. aureus B4 (pen. resistant); Diagnostic Sensitivity Test Agar; 18 hours at 37°C
Protocol: as §1

[10] = test system: Haemophilus influenzae Wy21; experiment: Human bacteria, MIC by serial dilution in nutrient agar; format: cell-based; details: nutrient agar with 5% chocolated horse blood, 18 hours at 37°C
M. suipneumoniae LABER = experiment: Anti-mycoplasmal activity, MIC in Friis broth agarose; format: cell-based; details: Friis broth solidified with 0.9% agarose, 6 days incubation at 37°C
M. suipneumoniae JF 435 = experiment: as above; format: cell-based; details: Friis broth solidified with 0.9% agarose, 6 days incubation at 37°C
Bord. bronchiseptica B08 = experiment: Veterinary bacteria, MIC by two fold serial dilution in agar; details: Bord. bronchiseptica B08; Diagnostic Sensitivity Test Agar; 18 hours at 37°C
Protocol: as §1

Strep. dysgalactiae SPD1 = experiment: as above; details: Strep. dysgalactiae SPD1; Diagnostic Sensitivity Test Agar; 18 hours at 37°C
Protocol: as §1

[11] = test system: Haemophilus influenzae Q1; experiment: Human bacteria, MIC by serial dilution in nutrient agar; format: cell-based; details: nutrient agar with 5% chocolated horse blood, 18 hours at 37°C
M. suipneumoniae TAM 6N = experiment: Anti-mycoplasmal activity, MIC in Friis broth agarose; format: cell-based; details: Friis broth solidified with 0.9% agarose, 6 days incubation at 37°C
K. aerogenes A = experiment: Human bacteria, MIC by serial dilution in nutrient agar; format: cell-based; details: nutrient agar with 5% chocolated horse blood, 18 hours at 37°C
[12] = test system: Corynebacterium xerosis 9755; experiment: as above; format: cell-based; details: nutrient agar with 5% chocolated horse blood, 18 hours at 37°C
Strep. spp. 64/848-C = experiment: as above; format: cell-based; details: nutrient agar with 5% chocolated horse blood, 18 hours at 37°C
[13] = test system: Strep. pyogenes R80/421-A; experiment: as above; format: cell-based; details: nutrient agar with 5% chocolated horse blood, 18 hours at 37°C
[14] = test system: M. bovigenitalium ATCC 14173; experiment: Anti-mycoplasmal activity, MIC in Friis broth agarose; format: cell-based; details: Friis broth solidified with 0.9% agarose, 6 days incubation at 37°C
Strep. pneumoniae CN33 = experiment: Human bacteria, MIC by serial dilution in nutrient agar; format: cell-based; details: nutrient agar with 5% chocolated horse blood, 18 hours at 37°C

m-Methylthiobenzyl monate A [Example 5]
MIC (M. pneumoniae ATCC 15492): 5.0 µg/mL
MIC (Ps. aeruginosa 10662): >100 µg/mL
MIC (E. coli E1): >80 µg/mL
MIC [1]: >80 µg/mL
MIC (M. suipneumoniae HK(2)): 0.5 µg/mL
MIC [2]: 0.25 µg/mL
MIC (Past. multocida PA2): .625 µg/mL
MIC (S. typhimurium S18): >80 µg/mL
MIC (Sarcina lutea 8340): >100 µg/mL
MIC (Bord. bronchiseptica BO9): 2.5 µg/mL
MIC (P. mirabilis 889): >100 µg/mL
MIC (M. suipneumoniae MS16): 0.25 µg/mL
MIC [3]: 10 µg/mL
MIC (Staph. aureus Russell): 1.0 µg/mL
MIC (Staph. aureus W2827): 0.5 µg/mL
MIC (E. coli NCTC 10418 [4]): >80 µg/mL
MIC [5]: 0.5 µg/mL
MIC (M. dispar NCTC 10125): 0.1 µg/mL
MIC (M. suipneumoniae UCD 1): 0.5 µg/mL
MIC (M. bovis NCTC 10131): 0.025 µg/mL
MIC (M. hyorhinis ATCC 23234): 0.25 µg/mL
MIC (E. coli ESS): 5.0 µg/mL
MIC (Strep. faecalis I): 100 µg/mL
MIC (Past. multocida PA1): 2.5 µg/mL
MIC (E. coli NCTC 10418 [6]): >100 µg/mL
MIC (M. suipneumoniae NB12): 0.5 µg/mL
MIC [7]: .156 µg/mL
MIC [8]: 0.5 µg/mL
MIC [9]: .156 µg/mL
MIC [10]: 1.0 µg/mL
MIC (M. suipneumoniae LABER): 0.25 µg/mL
MIC (M. suipneumoniae JF 435): 0.5 µg/mL
MIC (Bord. bronchiseptica B08): 10 µg/mL
MIC (Strep. dysgalactiae SPD1): .07 µg/mL
MIC [11]: 1.0 µg/mL
MIC (M. suipneumoniae TAM 6N): 0.5 µg/mL
MIC (K. aerogenes A): >100 µg/mL
MIC [12]: >100 µg/mL
MIC (Strep. spp. 64/848-C): 1.0 µg/mL
MIC [13]: 0.1 µg/mL
MIC [14]: 0.025 µg/mL
MIC (Strep. pneumoniae CN33): 1.0 µg/mL
